Results on two compounds are retold here after patent US20130171163A1, “Inhibition of LAR Phosphatase to Enhance Therapeutic Angiogenesis” (priority 2010, published 2013).

Assay [1] relates to wild-type and LAR−/− mice. Description: In vivo angiogenesis assay (Matrigel plug). On the set-up: species or system mouse. The following applies: in the presence of PPP. An excerpt:
The Matrigel plug assay was used to assess in vivo angiogenesis. […] Mice were sacrificed after 10 days and the plugs were carefully dissected from the mice. The plugs were weighed, analyzed histologically or for hemoglobin content using Drabkin hemoglobin assay kit (Sigma Chemical Co., St. Louis, Mo.). Hemoglobin levels in the Matrigel plugs correlate well with blood vessel growth (Volin et al., Am. J. Pathol. 159:1521 (2001)). The Matrigel plugs were homogenized on ice and centrifuged. Fifty μl of the supernatant were mixed with 950 μl Drabkin's reagent and the reaction was allowed to develop at room temperature for 30 min. Absorbance was read at 540 nm and hemoglobin concentration was determined by comparison to a standard curve generated using known concentrations of hemoglobin. For histological analysis, Matrigel plugs were formalin-fixed, paraffin-embedded, cut into 5 μm sections, and Massons trichrome-stained. In brief, sections were hydrated in distilled water, incubated in Bouin's fixative for 3 h to overnight, and then washed in running tap water until yellow color disappeared. […] Image J was used to quantify the number of vessel-like structures in each field. Total number of microvessels containing red blood cells and number of capillaries in a high power field (20× magnifications) were counted. […]

In a further assay the test system is HUVECs. Description: Matrigel morphogenesis assay (endothelial tube/cord formation). The following applies: 1 μM PPP. It is filed as cell-based, human. The procedure: Growth factor-reduced Matrigel was thawed at 4° C. on ice and 300 μl/well were added to a 24-well plate prechilled at −20° C. using a cold pipette. Matrigel was allowed to polymerize for 30 min at 37° C. HUVECs were either left uninfected or were infected with AdLAR or Adβ-gal. In a separate set of experiments, HUVECs were transfected with LAR siRNA or control siRNA as described above. […] In vitro tube formation was assessed after 5 h incubation. Cell cultures were observed under a phase contrast microscope and photographed in five different random fields (10× magnification). The mean tube length per field was quantified using NIH Image J.

The test system of assay [2] is aortic rings from wild-type and LAR−/− mice. Description: Ex vivo angiogenesis assay (aortic ring sprouting). On the set-up: species or system mouse. As for the experimental part: The angiogenesis assay was performed as described previously (Huang et al., J. Biol. Chem. 277:10760 (2002)) with some modifications. Thoracic aortas were excised from 8-12-week-old wild-type and LAR knockout male mice (DBA background) and immediately placed into cold medium 199 containing 10% FBS. Clotted blood inside the aortas was flushed with media, and the periadventitial fibroadipose tissue was removed. Aortas were then cut into cross-sectional rings of ˜1-1.5 mm in length. Rings were placed into 60-mm dishes containing 0.4 ml of cold growth factor-reduced Matrigel and then incubated at 37° C. until the Matrigel was polymerized. The aortic rings embedded in the Matrigel were overlaid with 0.5 ml of serum-free endothelial cell growth medium with or without the growth factors. The rings were maintained at 37° C. for up to 10 days with medium changes every 2 days. Vascular sprouting from the rings was examined daily under a Leica microscope (10× magnification), and digital images were obtained. Quantitative analysis of endothelial sprouting was performed using images from day 10, and sprout length was quantified using NIH Image J. The distance from the aortic ring body to the end of the vascular sprouts was measured at three distinct points per ring.

In a further assay the target is T1, IGF-1Rβ (Homo sapiens, UniProt P08069).
T1 construct: endogenous in cells; host or cells: HUVEC (Cambrex)
T1 sequence (P08069 31-1367): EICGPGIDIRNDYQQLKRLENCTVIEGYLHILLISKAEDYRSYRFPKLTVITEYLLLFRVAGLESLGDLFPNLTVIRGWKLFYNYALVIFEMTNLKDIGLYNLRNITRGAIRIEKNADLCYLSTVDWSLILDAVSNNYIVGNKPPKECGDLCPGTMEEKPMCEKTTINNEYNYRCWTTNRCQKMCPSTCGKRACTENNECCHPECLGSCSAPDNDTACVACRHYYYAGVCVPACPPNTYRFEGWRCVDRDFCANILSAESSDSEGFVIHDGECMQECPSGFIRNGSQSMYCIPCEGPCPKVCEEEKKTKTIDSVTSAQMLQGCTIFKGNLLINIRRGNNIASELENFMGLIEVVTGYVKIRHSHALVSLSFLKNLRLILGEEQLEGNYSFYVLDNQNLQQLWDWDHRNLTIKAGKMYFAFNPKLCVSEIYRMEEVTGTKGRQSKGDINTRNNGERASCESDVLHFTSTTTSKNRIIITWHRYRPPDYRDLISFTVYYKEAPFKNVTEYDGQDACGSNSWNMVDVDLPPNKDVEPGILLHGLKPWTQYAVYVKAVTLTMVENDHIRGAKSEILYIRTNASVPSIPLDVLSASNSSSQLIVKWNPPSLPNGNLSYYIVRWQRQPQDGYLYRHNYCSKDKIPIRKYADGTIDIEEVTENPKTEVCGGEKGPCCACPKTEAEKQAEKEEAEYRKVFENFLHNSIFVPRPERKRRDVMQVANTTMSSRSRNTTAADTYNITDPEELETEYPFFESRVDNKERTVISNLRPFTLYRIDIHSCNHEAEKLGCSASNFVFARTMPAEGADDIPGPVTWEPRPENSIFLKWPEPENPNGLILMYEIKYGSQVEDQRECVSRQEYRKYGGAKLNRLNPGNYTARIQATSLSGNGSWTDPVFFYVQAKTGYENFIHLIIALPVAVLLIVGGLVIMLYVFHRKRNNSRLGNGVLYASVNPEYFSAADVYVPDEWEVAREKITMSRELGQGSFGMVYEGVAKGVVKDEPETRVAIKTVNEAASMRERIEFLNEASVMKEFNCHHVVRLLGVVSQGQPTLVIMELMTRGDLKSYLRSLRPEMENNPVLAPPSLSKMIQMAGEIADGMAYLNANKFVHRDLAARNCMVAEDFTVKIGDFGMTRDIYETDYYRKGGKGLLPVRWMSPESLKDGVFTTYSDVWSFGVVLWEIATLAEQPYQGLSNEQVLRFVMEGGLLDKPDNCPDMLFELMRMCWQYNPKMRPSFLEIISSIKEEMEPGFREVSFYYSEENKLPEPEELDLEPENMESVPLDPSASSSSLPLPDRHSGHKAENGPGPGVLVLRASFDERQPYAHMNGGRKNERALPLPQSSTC
Description: IGF-1-induced IGF-1Rβ autophosphorylation in HUVECs (immunoprecipitation/Western). It is filed as cell-based. The procedure:
(§1) Human umbilical vein endothelial cells (HUVECs) were purchased from Cambrex (San Diego, Calif.) and were maintained in medium 199 (Mediatech, Inc, Herndon, Va.) containing 90 μg/ml heparin, 30 μg/ml endothelial cell growth supplements (BD Biosciences, Bedford, Mass.), 20% FBS, 50 μg/mL gentamicin, and 50 μg/mL amphotericin. Cultures were maintained at 37° C. in a humidified incubator (95% air, 5% CO2). HUVECs, grown to 80% confluence, were growth arrested by overnight incubation in medium 199 supplemented with 0.1% serum.
(§2) Preparation of cell lysates, immunoprecipitation and immunoblotting were performed as described (Reinmuth et al., Clin. Cancer Res. 8:3259 (2002)).
(§3) Adenoviral infection of nearly confluent HUVECs was performed with indicated multiplicity of infection in medium 199 containing 2% FBS. After 16 h incubation, the cells were quiesced overnight in medium 199 containing 0.1% FBS. Then HUVECs were treated with the indicated agonists in serum-free medium 199.
(§4) The LAR siRNA (sc-35793, containing three siRNAs (SEQ ID NOS:1-3)) and a scrambled, non-silencing siRNA (sc-36869) were obtained from Santa Cruz Biotechnology. […] HUVECs were treated with the indicated agonists in serum-free medium 199 and LAR expression was assessed by Western analysis.

A further assay relates to Akt, eNOS and ERK1/2. Description: IGF-1-induced phosphorylation of Akt, eNOS and ERK1/2 in HUVECs (Western). Type of assay: cell-based, human. The following applies: 100 ng/mL IGF-1, AdLAR at 2.5 MOI. The procedure:
as §1, §2, §3, §4

For the compound `COc1cc([C@@H]2c3cc4c(cc3[C@H](O)[C@H]3COC(=O)[C@@H]23)OCO4)cc(OC)c1OC` [PPP, picropodophyllin], the “Number of microvessels in IGF-1 embedded Matrigel plugs” value in assay [1] (LAR−/− mice) was “significantly decreased”. Further, the “Hemoglobin content of IGF-1 embedded Matrigel plugs” value in assay [1] (10 days, significant in LAR−/− mice (P=0.01)) is “decreased in both wild-type and LAR^−/− mice”. Moreover, the “IGF-1-induced cord formation in scrambled siRNA and LAR siRNA transfected HUVECs” value in the assay on HUVECs was “abrogated”. Further, the “Mean length of sprouts from IGF-1 treated wild-type and LAR−/− aortic rings” value in assay [2] (1 μM PPP, 10 days in Matrigel) is reported as “significantly inhibited”. On IGF-1Rβ (1 μM PPP), the “IGF-1Rβ autophosphorylation in HUVECs treated with IGF-1” value was “significant inhibition”. Further, the “IGF-1Rβ autophosphorylation in HUVECs treated with IGF-1, dose dependence” value at IGF-1Rβ (PPP pretreatment 1 h, 100 ng/mL IGF-1 10 min) is listed as “dose-dependent inhibition”.

Regarding “IGF-1: Recombinant human IGF-1 purchased from R&D Systems”, in assay [2] (wild-type and LAR−/− mice, IGF-1 treatment, day 10), the “Mean length of newly sprouted vessels from aortic rings” value is listed as “significantly enhanced”. Further, in the assay with Akt, eNOS and ERK1/2, the “IGF-1-induced phosphorylation of Akt, eNOS and ERK1/2” value is “increased”.
